In publication PMC8466947, “Polyphenol-Hydroxylating Tyrosinase Activity under Acidic pH Enables Efficient Synthesis of Plant Catechols and Gallols” (Microorganisms, 2021):

Target: T1, BmTy (tyrosinase from Bacillus megaterium) (Priestia megaterium, UniProt B2ZB02)
T1 construct: 6x His-tagged, expressed in E. coli BL21(DE3), Ni-NTA purified
T1 sequence (B2ZB02 1-297): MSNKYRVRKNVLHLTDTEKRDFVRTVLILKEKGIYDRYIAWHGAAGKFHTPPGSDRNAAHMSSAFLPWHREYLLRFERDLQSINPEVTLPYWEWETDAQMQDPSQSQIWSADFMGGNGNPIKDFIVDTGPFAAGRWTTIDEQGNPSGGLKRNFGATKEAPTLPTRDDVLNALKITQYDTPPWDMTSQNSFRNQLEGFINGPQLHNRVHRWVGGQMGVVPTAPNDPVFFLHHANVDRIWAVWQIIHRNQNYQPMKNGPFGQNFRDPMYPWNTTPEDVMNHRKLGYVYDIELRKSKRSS
Assay: dopachrome assay at […] nm, initial rates, L-tyrosine as substrate (monophenolase activity)
Type: biochemical
Details: read-out: KI1

Ki: 33.9 µM
SMILES: O=c1c(O)c(-c2ccc(O)c(O)c2)oc2cc(O)cc(O)c12 [QUE, quercetin]
